Values of other authors as cited in patent US20200016107A1, “COMPOSITION AND METHOD FOR THE TOPICAL TREATMENT OF SEVERE ACNE” (CENTRO INTTERNACIONAL DE COSMIATRÍA, S.A.P.I. DE C.V., priority 2017, published 2020).

Test system: sebaceous gland
Conditions: oral administration

Structure (SMILES): CC1=C(/C=C/C(C)=C/C=C/C(C)=C\C(=O)O)C(C)(C)CCC1 [13-cis-retinoic acid]
- effect on sebaceous gland secretion: almost completely suppresses this secretion
- patients with marked improvement: ~100%
